In patent publication US20010025053A1, “Use of nitric oxid synthase inhibitors for the treatment of diabetes” (Smith Kline Beecham p.l.c., priority 1997, published 2001):

Test system: obese db/db mouse
Assay: obese db/db mouse model of type 2 non-insulin dependent diabetes
Type: in vivo
Settings: obese db/db mice
Excerpt: The obese db/db mouse is a genetic model of type 2 non-insulin dependent diabetes which is both insulin resistant and hyperglycaemic. Male animals were obtained at 6 weeks of age. Blood samples were taken by tail tip snip for measurement of pre-treatment blood glucose. Animals were allocated into treated and control groups such that the mean and standard deviation of the fasting blood glucose concentrations of each group was similar.
On day 0 of the study a group of obese animals and their lean litter mates were killed for measurement of baseline biochemistry and histology. In addition one group of animals (control; n=14) were fed a standard diet and a further group received aminoguanidine (500 mg/kg; n=14) in the same diet. Animals were allowed free access to food and water and their intake measured daily. At weekly intervals 24 hr urine output was also measured. Mice (n=7) were killed at 30 days and 85 days from commencement of treatment. Blood was taken for measurement of glucose and insulin concentrations and the pancreas removed for histological analysis and for measurement of pancreatic insulin.

[1] = from day 63 compared to day 7, FIG. 1

N=C(N)NN [Aminoguanidine, Hydrazinecarboximidamide] was tested. Which islet morphology (day 30 of treatment, histology) did it give?
The islet morphology was “normal islet morphology was preserved”.

And the islet insulin content (day 30 of treatment, vs untreated controls)?
Its islet insulin content is “greater”.

And the urinary glucose excretion (from day 35, vs untreated, FIG. 1)?
The urinary glucose excretion was “lower”.

What about the “increase in urine output (polyuria)” value [1] of the same compound?
Its value is “prevented”.

And the “increase in water intake (polydipsia)” value [1]?
Its value is “prevented”.

What about the “pancreatic insulin content relative to untreated animals” value (treated vs untreated) of the same compound?
The value was “twice that of the untreated animals”.
